System: HMEC cells
Experiment: microarray differential expression, HMEC cells treated with Aza
Format: cell-based, human
Settings: vs untreated, log base 2, negative = upregulation
Protocol: HT29 cells were derived from a Grade II adenocarcinoma of the colon obtained from a person. HCT116 cells are a subpopulation of malignant cells isolated from a primary cell culture of a single human colonic carcinoma (Brattain et al. (1981) Cancer Res 41:1751-6). HMEC cells are a primary human epithelial cell line derived from the breast tissue of a normal donor. […] Treated cells were exposed to 500 nM 5-aza-2-deoxycytidine (Aza; Sigma-Aldrich) 24 hours after passage in complete culture medium. Control cultures were treated in parallel with phosphate buffered saline vehicle. After twenty-four hours, culture medium was replaced with drug-free medium. Control and Aza-treated cells were subcultured at equal densities at 1 and 5 days after the initial treatment, and proliferation was measured at the subsequent time point using a Coulter counter (Beckman Coulter, Fullerton Calif.). […]
Cells were harvested and lysed in 1 ml of TRIZOL reagent (5×10^6 cells/ml; Invitrogen). The lysates were vortexed thoroughly and incubated at room temperature for 2-3 minutes and extracted with 0.5 ml chloroform. The extract was mixed, incubated at room temperature for 5 minutes, and centrifuged at 16,000× g for 15 minutes at 4° C. The aqueous layer was collected, and an equal volume of isopropanol was added. Samples were mixed, incubated at room temperature for 10 minutes, and centrifuged at 16,000× g for 20 minutes at 4° C. The supernatant was removed, and the RNA pellet was washed with 1 ml of 70% ethanol, centrifuged at 16,000× g at 4° C., and resuspended in RNAse-free water. The concentration of the RNA was determined by measuring the optical density at 260 nm.
Poly(A) RNA was prepared using an OLIGOTEX mRNA kit (Qiagen) with the following modifications: OLIGOTEX beads were washed in tubes instead of on spin columns, resuspended in elution buffer, and then loaded onto spin columns to recover mRNA. To obtain maximum yield, the mRNA was eluted twice.
Each poly(A) RNA sample was reverse transcribed using MMLV reverse-transcriptase, 0.05 pg/μl oligo-d(T) primer (21mer), 1× first strand buffer, 0.03 units/ul RNAse inhibitor, 500 uM dAT?, 500 uM dGTP, 500 uM dTTP, 40 uM dCTP, and 40 uM either dCTP-Cy3 or dCTP-Cy5 (APB). The reverse transcription reaction was performed in a […] volume containing 200 ng poly(A) RNA using the GEMBRIGHT kit (Incyte Genomics). Specific control poly(A) RNAs (YCFRO6, YCFR45, YCFR67, YCFR85, YCFR43, YCFR22, YCFR23, YCFR25, YCFR44, YCFR26) were synthesized by in vitro transcription from non-coding yeast genomic DNA (W. Lei, unpublished). As quantitative controls, control mRNAs (YCFRO6, YCFR45, YCFR67, and YCFR85) at 0.002 ng, 0.02 ng, 0.2 ng, and 2 ng were diluted into reverse transcription reaction at ratios of 1:100,000, 1:10,000, 1:1000, 1:100 (w/w) to sample mRNA, respectively. To sample differential expression patterns, control mRNAs (YCFR43, YCFR22, YCFR23, YCFR25, YCFR44, YCFR26) were diluted into reverse transcription reaction at ratios of 1:3, 3:1, 1:10, 10:1, 1:25, 25:1 (w/w) to sample mRNA. Reactions were incubated at 37° C. for 2 hours, treated with […] of 0.5M sodium hydroxide, and incubated for 20 minutes at 85° C. to the stop the reaction and degrade the RNA.
cDNAs were purified using two successive CHROMA SPIN 30 gel filtration spin columns (Clontech). Cy3- and Cy5-labeled reaction samples were combined as described below and ethanol precipitated using […] of 100% ethanol. The cDNAs were then dried to completion using a SpeedVAC system (Savant Instruments, Holbrook N.Y.) and resuspended in 14 μl 5× SSC, 0.2% SDS.
Hybridization reactions contained 9 μl of sample mixture containing 0.2 μg each of Cy3 and CyS labeled cDNA synthesis products in 5× SSC, 0.2% SDS hybridization buffer. The mixture was heated to 65° C. for 5 minutes and was aliquoted onto the microarray surface and covered with an 1.8 cm^2 coverslip. […]

[1] = SEQ ID NO:33 cDNA clone YU62C03
[2] = SEQ ID NO:37, 38 MAGE-4b antigen
[3] = SEQ ID NO:49 phospholipid scramblase 1
[4] = SEQ ID NO:50 retinoid inducible gene 1
[5] = SEQ ID NO:51 interferon induced
[6] = SEQ ID NO:56 hepatitis C-associated microtubular aggregate
[7] = SEQ ID NO:58 Similar to keratin 7

Structure (SMILES): Nc1ncn([C@H]2C[C@H](O)[C@@H](CO)O2)c(=O)n1 [Aza, 5-aza-2-deoxycytidine]
- differential expression, Clone ID 4764233, HMEC t/Aza (9d) (SEQ ID NO:30 GAGE-8): 0.00
- differential expression, Clone ID 2511379, HMEC t/Aza (4d) (SEQ ID NO:31 GAGE-7B): 0.32
- differential expression, Clone ID 2511379, HMEC t/Aza (9d) (SEQ ID NO:31 GAGE-7B): 0.32
- differential expression, Clone ID 2471817, HMEC t/Aza (4d) [1]: 0.07
- differential expression, Clone ID 2471817, HMEC t/Aza (9d) [1]: 0.00
- differential expression, Clone ID 3333736, HMEC t/Aza (4d) (SEQ ID NO:34 MAGE-11 antigen): 0.06
- differential expression, Clone ID 3333736, HMEC t/Aza (9d) (SEQ ID NO:34 MAGE-11 antigen): 0.00
- differential expression, Clone ID 1304365, HMEC t/Aza (4d) (SEQ ID NO:35 GAGE-8): 0.00
- differential expression, Clone ID 1304365, HMEC t/Aza (9d) (SEQ ID NO:35 GAGE-8): 0.00
- differential expression, Clone ID 2657056, HMEC t/Aza (4d) [2]: 0.13
- differential expression, Clone ID 2657056, HMEC t/Aza (9d) [2]: 0.00
- differential expression, Clone ID 2507719, HMEC t/Aza (4d) (SEQ ID NO:39 MAGE-9 antigen): −0.48
- differential expression, Clone ID 2507719, HMEC t/Aza (9d) (SEQ ID NO:39 MAGE-9 antigen): −0.24
- differential expression, Clone ID 4688, HMEC t/Aza (4d) (SEQ ID NO:41 MAGE-1): −0.13
- differential expression, Clone ID 4688, HMEC t/Aza (9d) (SEQ ID NO:41 MAGE-1): −0.13
- differential expression, Clone ID 2068708, HMEC t/Aza (4d) (SEQ ID NO:42 HM74): −0.50
- differential expression, Clone ID 2068708, HMEC t/Aza (9d) (SEQ ID NO:42 HM74): −0.24
- differential expression, Clone ID 23770, HMEC t/Aza (4d) (SEQ ID NO:43 1-8D): −0.48
- differential expression, Clone ID 23770, HMEC t/Aza (9d) (SEQ ID NO:43 1-8D): −0.63
- differential expression, Clone ID 1616783, HMEC t/Aza (4d) (SEQ ID NO:45 Incyte Unique): −0.53
- differential expression, Clone ID 1616783, HMEC t/Aza (9d) (SEQ ID NO:45 Incyte Unique): −0.20
- differential expression, Clone ID 820942, HMEC t/Aza (4d) (SEQ ID NO:46 cDNA FLJ20120): −0.48
- differential expression, Clone ID 820942, HMEC t/Aza (9d) (SEQ ID NO:46 cDNA FLJ20120): −0.20
- differential expression, Clone ID 891322, HMEC t/Aza (4d) (SEQ ID NO:47 Incyte Unique): 0.00
- differential expression, Clone ID 891322, HMEC t/Aza (9d) (SEQ ID NO:47 Incyte Unique): 0.00
- differential expression, Clone ID 2755836, HMEC t/Aza (4d) (SEQ ID NO:48 U5 A RNA): −0.26
- differential expression, Clone ID 2755836, HMEC t/Aza (9d) (SEQ ID NO:48 U5 A RNA): −0.31
- differential expression, Clone ID 1227521, HMEC t/Aza (4d) [3]: −0.19
- differential expression, Clone ID 1227521, HMEC t/Aza (9d) [3]: −0.63
- differential expression, Clone ID 2200842, HMEC t/Aza (4d) [4]: 0.00
- differential expression, Clone ID 2200842, HMEC t/Aza (9d) [4]: 0.00
- differential expression, Clone ID 2238363, HMEC t/Aza (4d) [5]: −0.50
- differential expression, Clone ID 2238363, HMEC t/Aza (9d) [5]: −0.29
- differential expression, Clone ID 1495382, HMEC t/Aza (4d) (SEQ ID NO:53 TRAIL): −0.48
- differential expression, Clone ID 1495382, HMEC t/Aza (9d) (SEQ ID NO:53 TRAIL): −0.19
- differential expression, Clone ID 1998269, HMEC t/Aza (4d) (SEQ ID NO:55 rhoB): −0.29
- differential expression, Clone ID 1998269, HMEC t/Aza (9d) (SEQ ID NO:55 rhoB): −0.68
- differential expression, Clone ID 1919287, HMEC t/Aza (4d) [6]: 0.00
- differential expression, Clone ID 1919287, HMEC t/Aza (9d) [6]: 0.00
- differential expression, Clone ID 2637446, HMEC t/Aza (4d) (SEQ ID NO:57 HE4 protein): 0.00
- differential expression, Clone ID 2637446, HMEC t/Aza (9d) (SEQ ID NO:57 HE4 protein): 0.00
- differential expression, Clone ID 1962141, HMEC t/Aza (4d) [7]: 0.00
- differential expression, Clone ID 1962141, HMEC t/Aza (9d) [7]: −0.07
- differential expression, Clone ID 4933404, HMEC t/Aza (4d) (SEQ ID NO:60 Incyte Unique): 0.96
- differential expression, Clone ID 4933404, HMEC t/Aza (9d) (SEQ ID NO:60 Incyte Unique): 0.48
- differential expression, Clone ID 2150288, HMEC t/Aza (4d) (SEQ ID NO:61 Keratin 8): −0.67
- differential expression, Clone ID 2150288, HMEC t/Aza (9d) (SEQ ID NO:61 Keratin 8): −0.42
- differential expression, Clone ID 2697455, HMEC t/Aza (4d) (SEQ ID NO:61 Keratin 8): −0.63
- differential expression, Clone ID 2697455, HMEC t/Aza (9d) (SEQ ID NO:61 Keratin 8): −0.37

From patent publication US20030013099A1, “Genes regulated by DNA methylation in colon tumors” (priority 2001, published 2003)
